One test deals with HepG2 cells. Kind of test: cells. Conditions: Homo sapiens; for Emax: HepG2, read-out: % Max response; for IC50: HepG2, read-out: IC50 in HepG2 cells.
In test [1] the test system is P. falciparum Dd2 gametocytes. Put plainly: alamarBlue gametocyte viability assay, strain Dd2. The class given is cell-based, Plasmodium falciparum.
Protocol: (§1) Briefly, gametocyte cultures were set up at 0.1% parasitemia and on days 9–10 treated with 50 mM N-acetylglucosamine (NAG) to block further asexual growth. Stage III–V gametocytes were isolated by Percoll density gradient centrifugation on day 12 and returned to culture for 24 hrs before being used in the assay[9].
(§2) Briefly, 2.5 μl/well incomplete medium was dispensed into each well of 1,536-well plates using the Multidrop Combi followed by 23 nl compound transferring using the NX-TR Pintool (WAKO Scientific Solutions, San Diego, CA). Then, 2.5 μl/well of gametocytes was dispensed with a seeding density of 20,000 cells/well using the Multidrop Combi. The assay plates were incubated for 72 hrs at 37°C with 5% CO2.
Test [2] deals with P. falciparum 3D7 gametocytes. Put plainly: alamarBlue gametocyte viability assay, strain 3D7. In kind it is cell-based, Plasmodium falciparum.
Protocol: Asexual parasites of P. falciparum strain 3D7 were cultured as described previously[55]. Briefly, gametocyte cultures were set up at 0.1% parasitemia and on days 9–10 treated with 50 mM N-acetylglucosamine (NAG) to block further asexual growth. Stage III–V gametocytes were isolated by Percoll density gradient centrifugation on day 12 and returned to culture for 24 hrs before being used in the assay[9]. […] Growth medium was made with Dulbecco's Modified Eagle Medium with 10% fetal bovine serum (FBS).
Compound screening experiments were performed as previously described[11]. Briefly, 2.5 μl/well incomplete medium was dispensed into each well of 1,536-well plates using the Multidrop Combi followed by 23 nl compound transferring using the NX-TR Pintool (WAKO Scientific Solutions, San Diego, CA). Then, 2.5 μl/well of gametocytes was dispensed with a seeding density of 20,000 cells/well using the Multidrop Combi. The assay plates were incubated for 72 hrs at 37°C with 5% CO2.
The primary screen data was analyzed using customized software developed internally[58]. IC50 values were calculated using the Prism software (Graphpad Software, Inc. San Diego, CA). Data were presented as means ± SEM with n = 3 independent experiments.
The subject of test [3] is P. falciparum HB3 gametocytes. Kind of test: alamarBlue gametocyte viability assay, strain HB3. In kind it is cell-based, Plasmodium falciparum.
Protocol: as §1, §2
Test [4] concerns P. falciparum asexual parasites. Set-up: method as in earlier work. Conditions: SI Table 3, previous screens, cited from earlier work; for IC50: read-out: Activity against asexual parasites IC50.
[5] abbreviates: Plasmodium falciparum, DD2, strain profiling, 11 concentrations, 1:3 dilution, three times, read-out: Dd2-gametocytes IC50.
Where [6] appears, read: Plasmodium falciparum, 3D7, P. falciparum 3D7 gametocytes, mean of at least 3 independent experiments, read-out: Gametocyte IC50.
[7] abbreviates: Plasmodium falciparum, HB3, strain profiling, 11 concentrations, 1:3 dilution, three times, read-out: HB3-gametocytes IC50.
The mark [8] stands for this setting: Plasmodium falciparum, DD2, read-out: Dd2-gametocytes IC50.
The mark [9] stands for this setting: Plasmodium falciparum, 3D7, SI Table 3, structure clusters, read-out: Activity against gametocytes Efficacy (% response).
Where [10] appears, read: Plasmodium falciparum, 3D7, SI Table 3, structure clusters, read-out: Activity against gametocytes IC50.
Setting [11] is: Plasmodium falciparum, 3D7, strain profiling, 11 concentrations, 1:3 dilution, three times, read-out: 3D7-gametocytes IC50.
Setting [12] is: SI Table 3, structure clusters, read-out: Activity against gametocytes IC50.
Where [13] appears, read: Plasmodium falciparum, P. falciparum 3D7 gametocytes, mean of at least 3 independent experiments, read-out: Gametocyte IC50.
Setting [14] is: Plasmodium falciparum, HB3, read-out: HB3-gametocytes IC50.

Counter-ions that a name gives are not always drawn. Like-named read-outs stand apart in the source and are kept apart here.

Description for HepG2 cells: Growth medium was made with Dulbecco's Modified Eagle Medium with 10% fetal bovine serum (FBS).

In the case of `CN(C)C/C=C/C(=O)Nc1cc2c(Nc3ccc(F)c(Cl)c3)ncnc2cc1O[C@H]1CCOC1` [Afatinib], in the test with HepG2 cells, the Emax is -100%. Further, the IC50 with HepG2 cells was 18700 nM; in test [1] (setting [5]), 2960 nM; in test [2] (setting [6]), 935 nM; in test [3] (setting [7]) it was 4180 nM.

Consider `CO[C@H]1/C=C\C=C(/C)C(=O)NC2=CC(=O)C(NCCN(C)C)=C(C[C@@H](C)C[C@H](OC)[C@H](O)[C@@H](C)/C=C(\C)[C@@H]1OC(N)=O)C2=O` [Alvespimycin], for which the Emax with HepG2 cells is -94%. For the same compound, the IC50 in the test with HepG2 cells was determined as 118 nM; in test [1] (setting [8]) it was 94 nM; in test [2] (setting [6]), 74 nM; in test [3] (setting [7]), 235 nM.

As for `CN(C)CCC=C1c2ccccc2CCc2ccccc21` [Amitriptyline hydrochloride], in test [4], the “Activity against asexual parasites Efficacy (% response)” value is listed as -82.37 % response and the IC50 is 11200 nM.

For the compound `CC(C)C[C@H](NC(=O)[C@H](Cc1ccccc1)NC(=O)c1cnccn1)B(O)O` [Bortezomib], the Emax with HepG2 cells was -82%. Further, the IC50 is 148 nM in the test on HepG2 cells, 94 nM in test [1] (setting [5]), 118 nM in test [2] (setting [6]) and 74 nM in test [3] (setting [7]).

Regarding `C#Cc1cccc(Nc2ncnc3cc(OC)c(OCCCCCCC(=O)NO)cc23)c1` [CUDC-101], in the test with HepG2 cells, the Emax was -76%. The 50% inhibitory concentration (IC50) in the test with HepG2 cells amounted to 6790 nM; in test [1] (setting [5]) it was 429 nM; in test [2] (setting [6]) it was 833 nM; in test [3] (setting [7]) it was 152 nM. The “fold more potent against HB3 compared to 3D7 gametocytes” value in test [3] is listed as 5.5 fold.

As to `C=CCN1C[C@H](C(=O)N(CCCN(C)C)C(=O)NCC)C[C@@H]2c3cccc4[nH]cc(c34)C[C@H]21` [Cabergoline, reference compound], in test [4], the “Activity against asexual parasites Efficacy (% response)” value is listed as -63.65 % response and the IC50 was 17800 nM. In test [2] (setting [9]), the Emax came to 80.1%. For the same compound, the IC50 in test [2] (setting [10]) turned out to be 17800 nM.

Take `CC(C)C[C@H](NC(=O)[C@H](CCc1ccccc1)NC(=O)CN1CCOCC1)C(=O)N[C@@H](Cc1ccccc1)C(=O)N[C@@H](CC(C)C)C(=O)[C@@]1(C)CO1` [Carfilzomib]: the Emax in the test with HepG2 cells is -79%. The IC50 with HepG2 cells stood at 1180 nM; in test [1] (setting [5]) it was 2 nM; in test [2] (setting [6]), 12 nM; in test [2] (setting [11]), 4 nM; in test [3] (setting [7]), 3 nM.

As for `CN(C)CCCN1c2ccccc2CCc2ccc(Cl)cc21` [Clomipramine hydrochloride], in test [4], the “Activity against asexual parasites Efficacy (% response)” value is “inactive” and the “Activity against asexual parasites IC50” value is “inactive”.

In the case of `CN(C)CCCN1c2ccccc2CCc2ccc(Cl)cc21` [Clomipramine], in test [4], the “Activity against asexual parasites Efficacy (% response)” value is “inactive” and the “Activity against asexual parasites IC50” value is “inactive”.

In the case of `CN(C)CCC=C1c2ccccc2C=Cc2ccccc21` [Cyclobenzaprine hydrochloride, reference compound], in test [4], the “Activity against asexual parasites Efficacy (% response)” value is “inactive” and the “Activity against asexual parasites IC50” value was “inactive”. Besides, the Emax in test [2] (setting [9]) turned out to be 94.8%. Besides, in test [2] (setting [10]), the IC50 came out at 5620 nM. Further, the IC50 in test [2] (setting [12]) came out at 10000 nM.

Consider `CN1CCC(=C2c3ccccc3C=Cc3ccccc32)CC1` [Cyproheptadine hydrochloride], for which, in test [4], the “Activity against asexual parasites Efficacy (% response)” value is “inactive” and the “Activity against asexual parasites IC50” value is “inactive”. Besides, in test [2] (SI Table 3, structure clusters), the “Activity against gametocytes Efficacy (% response)” value was -80.99 % response.

Consider `CN1CCC(=C2c3ccccc3C=Cc3ccccc32)CC1` [Cyproheptadine], for which, in test [4], the “Activity against asexual parasites Efficacy (% response)” value was “inactive” and the “Activity against asexual parasites IC50” value is “inactive”. Moreover, in test [2] (SI Table 3, structure clusters), the “Activity against gametocytes Efficacy (% response)” value is on record as -122.81 % response.

Turning to `CNCCCN1c2ccccc2CCc2ccccc21` [Desipramine hydrochloride], in test [4], the “Activity against asexual parasites Efficacy (% response)” value was “inactive” and the “Activity against asexual parasites IC50” value is “inactive”. Besides, the Emax in test [2] (setting [9]) was determined as 101%.

For `CN(C)CCCN1c2ccccc2C(C)(C)c2ccccc21` [Dimetacrine, reference compound], in test [4], the “Activity against asexual parasites Efficacy (% response)” value is “inactive” and the “Activity against asexual parasites IC50” value was “inactive”. In addition, in test [2] (Plasmodium falciparum, 3D7, read-out: Activity against gametocytes Efficacy (% response), SI Table 3, structure clusters), the Emax came to 77%. Also, the IC50 in test [2] (Plasmodium falciparum, 3D7, read-out: Activity against gametocytes IC50, SI Table 3, structure clusters) came to 22400 nM.

With `[O-][n+]1ccccc1SSc1cccc[n+]1[O-]` [Dipyrithione], the Emax with HepG2 cells is -93%. For the same compound, the IC50 was 10800 nM in the test on HepG2 cells, 590 nM in test [1] (setting [8]), 263 nM in test [2] (setting [6]) and 743 nM in test [3] (setting [7]).

For `CN(C)CCCN1c2ccccc2CCc2ccccc21` [Imipramine hydrochloride], in test [4], the “Activity against asexual parasites Efficacy (% response)” value was “inactive” and the “Activity against asexual parasites IC50” value was “inactive”.

Take `CN(CCCN1c2ccccc2CCc2ccccc21)CC(=O)c1ccc(Cl)cc1` [Lofepramine hydrochloride, reference compound]: the “Activity against asexual parasites Efficacy (% response)” value in test [4] is on record as -103.99 % response. Further, the figures for the IC50 in test [4] and in test [2] (setting [10]) were 10000 nM and 20000 nM, respectively. In test [2] (setting [9]), the Emax amounted to 103%.

For `CN(C)CCC=C1c2ccccc2C(C)(C)c2ccccc21.Cl` [Melitracen hydrochloride, reference compound], in test [4], the “Activity against asexual parasites Efficacy (% response)” value was “inactive” and the “Activity against asexual parasites IC50” value is “inactive”. Besides, the “Activity against gametocytes Efficacy (% response)” value in test [2] (SI Table 3, structure clusters) was -103.56 % response. Moreover, the half-inhibitory concentration (IC50) in test [2] (setting [12]) stood at 35500 nM.

For `CCNC(=O)c1noc(-c2cc(C(C)C)c(O)cc2O)c1-c1ccc(CN2CCOCC2)cc1` [NVP-AUY922], the Emax with HepG2 cells was -88%. In addition, the IC50 in the test with HepG2 cells amounted to 148 nM; in test [1] (setting [5]) it was 47 nM; in test [2] (setting [6]), 47 nM; in test [3] (setting [7]) it was 42 nM.

For `CC[C@@H](C(=O)O)[C@@H]1O[C@@H]([C@@H](C)[C@H](O)[C@H](C)C(=O)[C@H](CC)[C@H]2O[C@]3(C=C[C@@H](O)[C@]4(CC[C@@](C)([C@H]5CC[C@](O)(CC)[C@H](C)O5)O4)O3)[C@H](C)C[C@@H]2C)[C@@H](C)C[C@@H]1C` [Narasin], the Emax in the test on HepG2 cells was -98%. For the same compound, the IC50 is 27000 nM in the test with HepG2 cells, 76 nM in test [1] (setting [8]), 50 nM in test [2] (setting [6]) and 136 nM in test [3] (setting [7]).

As to `Cc1[nH]c2ccccc2c1CCNCc1ccc(/C=C/C(=O)NO)cc1` [Panobinostat], the Emax in the test with HepG2 cells is -74%. Moreover, the IC50 with HepG2 cells came out at 372 nM; in test [1] (setting [5]), 118 nM; in test [2] (setting [6]), 935 nM; in test [3] (setting [7]) it was 148 nM.

`COc1cc(NC(C)CCCN)c2ncccc2c1` (centres unmarked) [Primaquine]: the IC50 in the test with HepG2 cells worked out at 17800 nM; in test [1] (Plasmodium falciparum, DD2, read-out: Dd2-gametocytes IC50, strain profiling, 11 concentrations, 1:3 dilution, three times) it was 1080 nM; in test [1] (read-out: Dd2-gametocytes IC50, strain profiling, 11 concentrations, 1:3 dilution, three times, listed as PQ), 1080 nM; in test [3] (read-out: HB3-gametocytes IC50, strain profiling, 11 concentrations, 1:3 dilution, three times, listed as PQ), 680 nM.

With `COc1ccc(C[C@H](N)C(=O)N[C@H]2[C@@H](O)[C@H](n3cnc4c(N(C)C)ncnc43)O[C@@H]2CO)cc1` [Puromycin], in the test on HepG2 cells, the Emax was -71%. In addition, the IC50 in the test on HepG2 cells was 11800 nM; in test [1] (setting [5]) it was 2640 nM; in test [2] (setting [6]), 1050 nM; in test [3] (setting [7]), 1480 nM.

Consider `C/C=C1\NC(=O)[C@H]2CSSCC/C=C/[C@H](CC(=O)N[C@H](C(C)C)C(=O)N2)OC(=O)[C@H](C(C)C)NC1=O` [Romidepsin], for which the Emax in the test on HepG2 cells is -98%. For the same compound, the IC50 stood at 74 nM in the test with HepG2 cells; 187 nM in test [1] (setting [8]); 264 nM in test [2] (setting [11]); 637 nM in test [2] (setting [13]); 148 nM in test [3] (setting [14]).

On to `CC[C@@H](C(=O)[C@@H](C)[C@@H](O)[C@H](C)[C@@H]1O[C@@H]([C@@H](CC)C(=O)O)CC[C@@H]1C)[C@H]1O[C@]2(C=C[C@@H](O)[C@]3(CC[C@@](C)([C@H]4CC[C@](O)(CC)[C@H](C)O4)O3)O2)[C@H](C)C[C@@H]1C` [Salinomycin sodium], for which the Emax with HepG2 cells is -69%. Further, the IC50 in the test on HepG2 cells was found to be 29600 nM; in test [1] (setting [8]) it was 296 nM; in test [2] (setting [11]) it was 118 nM; in test [2] (setting [13]) it was 194 nM; in test [3] (setting [14]) it was 372 nM.

With `CC1=C(CO)C(=O)O[C@@H]([C@@H](C)[C@H]2CC[C@H]3[C@@H]4C[C@H]5O[C@]56[C@@H](O)C=CC(=O)[C@]6(C)[C@H]4CC[C@]23C)C1` [Withaferin A], the Emax with HepG2 cells was -80%. The IC50 came out at 9350 nM in the test with HepG2 cells, 372 nM in test [1] (setting [5]), 372 nM in test [2] (setting [6]) and 1330 nM in test [3] (setting [7]).

For `COCCn1c2c([n+](Cc3cnccn3)c1C)C(=O)c1ccccc1C2=O` [YM155], the Emax with HepG2 cells is -92%. The IC50 with HepG2 cells was determined as 4690 nM; in test [1] (setting [5]) it was 526 nM; in test [2] (setting [6]), 372 nM; in test [3] (setting [7]), 304 nM.

The record behind these values is paper PMC3894558, “Chemical signatures and new drug targets for gametocytocidal drug development” (Scientific Reports, 2014).
